Results as given in patent publication US20110136801A1, “Novel Compounds” (Dainippon Sumitomo Pharma Co. Ltd., priority 2009, published 2011).

Biological target: T1, human TLR7 (Homo sapiens, UniProt Q9NYK1)
T1 construct: expressed in transfected cells; host or cells: HEK293 cell line stably expressing the pNiFty2-SEAP reporter plasmid; TLR7 in pUNO vector, blasticidin selection
T1 sequence (Q9NYK1 27-1049): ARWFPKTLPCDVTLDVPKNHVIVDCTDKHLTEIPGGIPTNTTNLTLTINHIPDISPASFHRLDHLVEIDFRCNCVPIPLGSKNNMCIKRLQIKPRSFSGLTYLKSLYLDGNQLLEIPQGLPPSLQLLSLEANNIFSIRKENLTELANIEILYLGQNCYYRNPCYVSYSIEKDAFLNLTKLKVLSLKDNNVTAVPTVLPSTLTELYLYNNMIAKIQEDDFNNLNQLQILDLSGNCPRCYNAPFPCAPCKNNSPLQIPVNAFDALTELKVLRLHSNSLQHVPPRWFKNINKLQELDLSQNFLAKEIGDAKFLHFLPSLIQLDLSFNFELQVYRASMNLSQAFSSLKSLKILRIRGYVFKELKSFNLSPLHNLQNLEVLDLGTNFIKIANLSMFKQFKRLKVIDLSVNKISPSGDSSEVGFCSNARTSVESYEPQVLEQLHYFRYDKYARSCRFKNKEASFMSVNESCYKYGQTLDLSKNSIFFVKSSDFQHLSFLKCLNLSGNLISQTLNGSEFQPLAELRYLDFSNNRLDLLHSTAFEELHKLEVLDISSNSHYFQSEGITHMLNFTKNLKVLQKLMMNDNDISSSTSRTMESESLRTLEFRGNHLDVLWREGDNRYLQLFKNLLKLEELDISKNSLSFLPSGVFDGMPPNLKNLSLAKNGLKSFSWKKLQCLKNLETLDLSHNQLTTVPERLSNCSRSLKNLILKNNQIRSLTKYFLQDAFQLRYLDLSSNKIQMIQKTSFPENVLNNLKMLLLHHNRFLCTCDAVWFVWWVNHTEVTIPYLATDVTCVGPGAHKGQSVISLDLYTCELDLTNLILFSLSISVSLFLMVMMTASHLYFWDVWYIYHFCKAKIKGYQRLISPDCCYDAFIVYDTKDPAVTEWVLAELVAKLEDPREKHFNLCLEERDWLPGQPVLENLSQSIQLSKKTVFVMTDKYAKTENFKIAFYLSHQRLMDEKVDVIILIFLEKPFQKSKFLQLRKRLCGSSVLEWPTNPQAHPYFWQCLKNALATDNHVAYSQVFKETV
Test: Human TLR7 Assay (SEAP reporter in HEK293 cells);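 further: Read-out is secreted alkaline phosphatase made under an NFkB/ELAM-1 composite promoter, reporting TLR7-triggered NFkB activation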
Assay type: cell-based
Conditions: HEK293 cell line expressing human TLR7 and pNiFty2-SEAP reporter, overnight incubation at 37° C., 0.1% DMSO; read-out: hTLR7 EC50

| Compound | EC50 |
| --- | --- |
| CCN(CC)CC(=O)N(CCCn1c(CCOC)nc2c(N)nc3ccccc3c21)Cc1ccccc1OCC(=O)OC [Example 40, Methyl 2-{2-[(N-{3-[4-amino-2-(2-methoxyethyl)-1H-imidazo[4,5-c]quinolin-1-yl]propyl}-2-(diethylamino)acetamido)methyl]phenoxy}acetate] | 243 nM |
| CCN(CC)CC(=O)N(CCCCn1c(CCOC)nc2c(N)nc3ccccc3c21)Cc1cccc(OCC(=O)OC(C)(C)C)c1 [Example 48, tert-Butyl 2-{3-[(N-{4-[4-amino-2-(2-methoxyethyl)-1H-imidazo[4,5-c]quinolin-1-yl]butyl}-2-{diethylamino}acetamido)methyl]phenoxy}acetate] | 24.7 nM |
| CCN(CC)CC(=O)N(CCCn1c(CCOC)nc2c(N)nc3ccccc3c21)Cc1cccc(OC(C)C(=O)OC)c1 (centres unmarked) [Example 51, Methyl 2-{3-[(N-{3-[4-amino-2-(2-methoxyethyl)-1H-imidazo[4,5-c]quinolin-1-yl]propyl}-2-{diethylamino}acetamido)methyl]phenoxy}propanoate] | 42.6 nM |
| CCOC(=O)C(C)(C)Oc1cccc(CN(CCCn2c(CCOC)nc3c(N)nc4ccccc4c32)C(=O)CN(CC)CC)c1 [Example 55, Ethyl 2-{3-[(N-{3-[4-amino-2-(2-methoxyethyl)-1H-imidazo[4,5-c]quinolin-1-yl]propyl}-2-{diethylamino}acetamido)methyl]phenoxy}-2-methylpropanoate] | 46.4 nM |
| CCOC(=O)C1(Oc2cccc(CN(CCCn3c(CCOC)nc4c(N)nc5ccccc5c43)C(=O)CN(CC)CC)c2)CCC1 [Example 59, Ethyl 1-{3-[(N-{3-[4-amino-2-(2-methoxyethyl)-1H-imidazo[4,5-c]quinolin-1-yl]propyl}-2-{diethylamino}acetamido)methyl]phenoxy}cyclobutanecarboxylate] | 69 nM |
| CCN(CC)CC(=O)N(CCCn1c(CCOC)nc2c(N)nc3ccccc3c21)Cc1ccc(OC)c(OCC(=O)OC)c1 [Example 63, Methyl 2-{5-[(N-{3-[4-amino-2-(2-methoxyethyl)-1H-imidazo[4,5-c]quinolin-1-yl]propyl}-2-{diethylamino}acetamido)methyl]-2-methoxyphenoxy}acetate] | 212 nM |
| CCN(CC)CC(=O)N(CCCn1c(CCOC)nc2c(N)nc3ccccc3c21)Cc1ccc(C)c(OCC(=O)OC(C)C)c1 [Example 67, Isopropyl 2-{5-[(N-{3-[4-amino-2-(2-methoxyethyl)-1H-imidazo[4,5-c]quinolin-1-yl]propyl}-2-{diethylamino}acetamido)methyl]-2-methylphenoxy}acetate] | 45.8 nM |
| CCC(Oc1cccc(CN(CCCn2c(CCOC)nc3c(N)nc4ccccc4c32)C(=O)CN(CC)CC)c1)C(=O)OC (centres unmarked) [Example 70, Methyl 2-{3-[(N-{3-[4-amino-2-(2-methoxyethyl)-1H-imidazo[4,5-c]quinolin-1-yl]propyl}-2-{diethylamino}acetamido)methyl]phenoxy}butanoate] | 25.9 nM |
| CCN(CC)CC(=O)N(CCCn1c(CCOC)nc2c(N)nc3ccccc3c21)Cc1ccc(OC)c(OCC(=O)OC(C)C)c1 [Example 72, Isopropyl 2-{5-[(N-{3-[4-amino-2-(2-methoxyethyl)-1H-imidazo[4,5-c]quinolin-1-yl]propyl}-2-{diethylamino}acetamido)methyl]-2-methoylphenoxy}acetate] | 55.8 nM |
| COCCc1nc2c(N)nc3ccccc3c2n1CCCN(Cc1ccc(OC)c(OCC(=O)OC(C)C)c1)C(=O)CN(C)C [Example 75, Isopropyl 2-{5-[(N-{3-[4-amino-2-(2-methoxyethyl)-1H-imidazo[4,5-c]quinolin-1-yl]propyl}-2-{dimethylamino}acetamido)methyl]-2-methoxyphenoxy}acetate] | 405 nM |
| CCN(C)CC(=O)N(CCCn1c(CCOC)nc2c(N)nc3ccccc3c21)Cc1ccc(OC)c(OCC(=O)OC(C)C)c1 [Example 76, Isopropyl 2-{5-[(N-{3-[4-amino-2-(2-methoxyethyl)-1H-imidazo[4,5-c]quinolin-1-yl]propyl}-2-{ethyl(methyl)amino}acetamido)methyl]-2-methoxyphenoxy}acetate] | 211 nM |
| CCN(CC)CC(=O)N(CCCn1c(CCOC)nc2c(N)nc3ccccc3c21)Cc1cccc(OC2(C(=O)OC)CC2)c1 [Example 79, Methyl 1-{3-[(N-{3-[4-amino-2-(2-methoxyethyl)-1H-imidazo[4,5-c]quinolin-1-yl]propyl}-2-{diethylamino}acetamido)methyl]phenoxy}cyclopropanecarboxylate] | 51.8 nM |
| CCN(CC)CC(=O)N(CCCn1c(CCOC)nc2c(N)nc3ccccc3c21)Cc1cccc(OCC(=O)OC2CCOCC2)c1 [Example 82, Tetrahydro-2H-pyran-4-yl 2-{3-[(N-{3-[4-amino-2-(2-methoxyethyl)-1H-imidazo[4,5-c]quinolin-1-yl]propyl}-2-{diethylamino}acetamido)methyl]phenoxy}acetate] | 115 nM |

The next lines start with the values.

| EC50 | Compound |
| --- | --- |
| 84.5 nM | CCN(CC)CC(=O)N(CCCn1c(CCOC)nc2c(N)nc3ccccc3c21)Cc1ccc(OCC(=O)OC)cc1 [Example 36, Methyl 2-{4-[(N-{3-[4-amino-2-(2-methoxyethyl)-1H-imidazo[4,5-c]quinolin-1-yl]propyl}-2-(diethylamino)acetamido)methyl]phenoxy}acetate] |
| 38.3 nM | CCOC(=O)COc1ccc(CN(CCCn2c(CCOC)nc3c(N)nc4ccccc4c32)C(=O)CN(CC)CC)cc1 [Example 37, Ethyl 2-{4-[(N-{3-[4-amino-2-(2-methoxyethyl)-1H-imidazo[4,5-c]quinolin-1-yl]propyl}-2-(diethylamino)acetamido)methyl]phenoxy}acetate] |
| 137 nM | CCOC(=O)COc1ccccc1CN(CCCn1c(CCOC)nc2c(N)nc3ccccc3c21)C(=O)CN(CC)CC [Example 41, Ethyl 2-{2-[(N-{3-[4-amino-2-(2-methoxyethyl)-1H-imidazo[4,5-c]quinolin-1-yl]propyl}-2-(diethylamino)acetamido)methyl]phenoxy}acetate] |
| 22.7 nM | CCOC(=O)COc1cccc(CN(CCCCn2c(CCOC)nc3c(N)nc4ccccc4c32)C(=O)CN(CC)CC)c1 [Example 44, Ethyl 2-{3-[(N-{4-[4-amino-2-(2-methoxyethyl)-1H-imidazo[4,5-c]quinolin-1-yl]butyl}-2-(diethylamino)acetamido)methyl]phenoxy}acetate] |
| 24.2 nM | CCOC(=O)C(C)Oc1cccc(CN(CCCn2c(CCOC)nc3c(N)nc4ccccc4c32)C(=O)CN(CC)CC)c1 (centres unmarked) [Example 52, Ethyl 2-{3-[(N-{3-[4-amino-2-(2-methoxyethyl)-1H-imidazo[4,5-c]quinolin-1-yl]propyl}-2-{diethylamino}acetamido)methyl]phenoxy}propanoate] |
| 84.2 nM | CCOC(=O)COc1cc(CN(CCCn2c(CCOC)nc3c(N)nc4ccccc4c32)C(=O)CN(CC)CC)ccc1OC [Example 62, Ethyl 2-{5-[(N-{3-[4-amino-2-(2-methoxyethyl)-1H-imidazo[4,5-c]quinolin-1-yl]propyl}-2-{diethylamino}acetamido)methyl]-2-methoxyphenoxy}acetate] |
| 27.3 nM | CCOC(=O)COc1cc(CN(CCCn2c(CCOC)nc3c(N)nc4ccccc4c32)C(=O)CN(CC)CC)ccc1C [Example 66, Ethyl 2-{5-[(N-{3-[4-amino-2-(2-methoxyethyl)-1H-imidazo[4,5-c]quinolin-1-yl]propyl}-2-{diethylamino}acetamido)methyl]-2-methylphenoxy}acetate] |
| 23 nM | CCOC(=O)C(CC)Oc1cccc(CN(CCCn2c(CCOC)nc3c(N)nc4ccccc4c32)C(=O)CN(CC)CC)c1 (centres unmarked) [Example 71, Ethyl 2-{3-[(N-{3-[4-amino-2-(2-methoxyethyl)-1H-imidazo[4,5-c]quinolin-1-yl]propyl}-2-{diethylamino}acetamido)methyl]phenoxy}butanoate] |
| 56.1 nM | CCN(CC)CC(=O)N(CCCn1c(CCOC)nc2c(N)nc3ccccc3c21)Cc1cccc(OCC(=O)OC2CCC2)c1 [Example 81, Cyclobutyl 2-{3-[(N-{3-[4-amino-2-(2-methoxyethyl)-1H-imidazo[4,5-c]quinolin-1-yl]propyl}-2-{diethylamino}acetamido)methyl]phenoxy}acetate] |
| 61.3 nM | CCCCOC(=O)COc1cccc(CN(CCCn2c(CCOC)nc3c(N)nc4ccccc4c32)C(=O)CN(CC)CC)c1 [Example 83, Butyl 2-{3-[(N-{3-[4-amino-2-(2-methoxyethyl)-1H-imidazo[4,5-c]quinolin-1-yl]propyl}-2-{diethylamino}acetamido)methyl]phenoxy}acetate] |
